The values below come from paper PMC11761228, “Cinnamic Acid Compounds (p-Coumaric, Ferulic, and p-Methoxycinnamic Acid) as Effective Antibacterial Agents Against Colistin-Resistant Acinetobacter baumannii” (Antibiotics, 2025).

Each structure is given as a SMILES string. Converted amounts (≈) assume the structure as drawn. “And” between values parts separate entries of the source, which are not always exact repeats. Equal values may be shown once. “Also recorded” adds a separate entry of the source. Read-outs that look alike come from different tables or passages of the source.

Series [1] relates to COLR-Ab isolates. The series is described as follows: Broth microdilution MIC determination (CLSI). Format: cell-based, Acinetobacter baumannii. As for the experimental part:
The broth microdilution method, as recommended by the CLSI, was used to determine the MIC values of COL, p-CA, FA, and p-MCA [46]. The serial two-fold dilutions of antimicrobial agents were prepared using 96-well microplates with cation-adjusted Mueller-Hinton Broth (MHB) (CAMHB, Merck KGaA, Darmstadt, Germany). Firstly, an initial concentration of 8192 µg/mL was chosen to determine the MIC values of all compounds against COLR-Ab isolates. […] The bacterial suspension was adjusted to the 0.5 McFarland standard and added to each well (final bacterial concentration: 5 × 10^5 colony forming units [CFU]/mL). Additionally, the microdilution plates included controls for bacterial growth (CAMHB + bacteria) and medium sterility (CAMHB). Microdilution plates were incubated at 35 ± 2 °C for 18–24 h. The MIC values were calculated by comparing the growth densities in the antibiotic-containing wells to those in the control wells used in each test set. Each experiment was conducted in triplicate.
(In general: In broth dilution the organism is exposed to a series of concentrations in liquid medium.)

The test system of series [2] is biofilm formation of COLR-Ab isolates. Description: Antibiofilm activity, microtiter plate-based crystal violet technique. The note with it: for Reduction of biofilm formation: dose range 512–32 μg/mL. Format: cell-based, Acinetobacter baumannii. How it is done: Following the incubation period, the microtiter plates were gently washed three times with PBS. Subsequently, 200 µL of methanol (99%) was added to each well and left for 15 min. The methanol was then removed from the wells and the plate was left to dry for approximately 30 min, thus completing the fixation process. Then, 200 µL of 0.1% CV solution was added to each well and incubated for 20 min at room temperature. The plates were washed three times with PBS in order to remove the excess stain, and then 150 μL of 95% ethanol was added to the wells and incubated for 20 min. The optical density of the CV-stained biofilm was measured at a wavelength of 575 nm using a Thermo Labsystem Multiscan Spectrum microtiter plate reader (Thermolabsystem, Chantilly, VA, USA). Each experiment was conducted in triplicate.
In order to evaluate the antibiofilm activity of COL, p-CA, FA, and p-MCA, a 96-well microtiter plate-based CV test was carried out, with minor modifications to the methods previously described by Kırmusaoglu (2019) and Haney et al. (2021). Briefly, bacteria were inoculated into MHB medium containing 0.2% glucose and incubated at 37 °C for 16–20 h. The bacterial suspension, adjusted to 0.5 McFarland using the same medium, was prepared to a final concentration of 5 × 10^5 CFU/mL and inoculated into 96-well flat-bottom microtitre plates. […] Wells containing only medium were used as negative controls (MHB), and wells containing only medium and bacteria were used as growth controls. The plates were then incubated overnight at 35 ± 2 °C in a normal atmosphere. Following incubation, CV staining procedures were carried out in a similar manner to Section 4.4.
The antibiofilm index was calculated using the following formula:% Biofilm Mass = (100 × Sample OD575/Growth Control OD575)

The subject of series [3] is COLR-Ab4 isolate. Description: Cytoplasmic membrane permeability assay (A260 of supernatant). Format: cell-based, Acinetobacter baumannii. The note with it: 3 h. As for the experimental part: A cell membrane permeability assay was carried out in accordance with the methods described by Köse (2023). […] The bacteria were firstly incubated in MHB at 35 ± 2 °C overnight. Subsequently, the bacterial culture was centrifuged at 4000× g at 15 min, after which the pellet was washed twice with PBS. […] A suspension containing PBS and bacteria was used as a control. All samples were incubated at 35 ± 2 °C for 3 h, centrifuged at 13,400× g for 15 min, and the supernatant was harvested. The absorbance (A)260 of the supernatant was quantified using a UV-Vis spectrophotometer (Agilent Technologies, Santa Clara, CA, USA) to determine the amount of nucleic acid released from the cytoplasm. Each experiment was repeated three times.

Series [4] has as its system HUVEC cells. The series is described as follows: CCK-8 cell viability assay. Format: cell-based, human. The note with it: 0.78125–200 μg/mL, 24 h. How it is done:
(§1) 293T [HEK-293] (ATCC® CRL-1573), HUVEC (ATCC CRL-1730 ™, human umbilical vein endothelial cells) and Vero (ATCC® CCL-81™, African green monkey kidney epithelial cells) cells were used in this study. Cells were cultured in RPMI-1640 medium supplemented with 10% fetal bovine serum, 0.1 mM non-essential amino acids, […], 2 mM L-glutamine, and 10 μg/mL gentamicin in a humidified atmosphere of 5% CO2, 95% air at 37 °C. After growing to approximately 80% confluence, the cells were detached with 0.25% (w/v) trypsin-EDTA and then subcultured. The cells were stored in a deep freezer at −80 °C in a solution prepared with 95% medium and 5% DMSO.
Cell viability was assessed according to the manufacturer’s protocol using a Cell Counting Kit-8 (CCK-8) (KTA1020, Abbkine, Atlanta, GA, USA). The assay is based on the reduction of 2-(2-methoxy-4-nitrophenyl)-3-(4-nitrophenyl)-5-(2,4-disulfophenyl)-2H-tetrazolium monosodium salt (WST-8) by cellular mitochondrial dehydrogenase. Cells were seeded in 96-well plates at a final concentration of 5 × 10^3 cells/well in 100 μL complete culture medium and were allowed to attach for 24 h. […] Immediately after the treatment, cell viability in a single column was determined and recorded as time zero (T0). The plain medium with 1% FBS was used as a negative control, whereas ethanol was used as solvent control. Each treatment was performed in four well replicates. At the end of the incubation, the medium was gently aspirated to terminate the experiment, a total volume of 10 μL (5 mg/mL) of CCK-8 solution was added to each well and further incubated under the same conditions for 4 h. The absorbances at 450 nm were measured in a microplate reader (Thermo Labsystem, Waltham, MA, USA), using wells without cells as background. The sample readings were calculated by subtracting the average of background absorbances. […] Cell viability was calculated using the following formula: Cell viability (%) = (ODtreatment − ODblank)/(ODcontrol − ODblank) × 100% [78].
For orientation: Tetrazolium dyes change colour on reduction, which living cells bring about.

Series [5] has as its system Vero cells. Description: CCK-8 cell viability assay. Format: cell-based, African green monkey. The note with it: 24 h; for Cytotoxicity (doses with cytotoxic effects): 0.78125–200 μg/mL. As for the experimental part:
as §1
Cell viability was assessed according to the manufacturer’s protocol using a Cell Counting Kit-8 (CCK-8) (KTA1020, Abbkine, Atlanta, GA, USA). The assay is based on the reduction of 2-(2-methoxy-4-nitrophenyl)-3-(4-nitrophenyl)-5-(2,4-disulfophenyl)-2H-tetrazolium monosodium salt (WST-8) by cellular mitochondrial dehydrogenase. Cells were seeded in 96-well plates at a final concentration of 5 × 10^3 cells/well in 100 μL complete culture medium and were allowed to attach for 24 h. […] Immediately after the treatment, cell viability in a single column was determined and recorded as time zero (T0). The plain medium with 1% FBS was used as a negative control, whereas ethanol was used as solvent control. Each treatment was performed in four well replicates. At the end of the incubation, the medium was gently aspirated to terminate the experiment, a total volume of 10 μL (5 mg/mL) of CCK-8 solution was added to each well and further incubated under the same conditions for 4 h. The absorbances at 450 nm were measured in a microplate reader (Thermo Labsystem, Waltham, MA, USA), using wells without cells as background. The sample readings were calculated by subtracting the average of background absorbances. The half-maximal inhibitory concentration (IC50) of each extract was derived by a nonlinear regression model (curve-fit) based on a sigmoidal dose response curve (variable slope) and was computed using Graph-Pad Prism, version 4.00 (Graph-Pad Software, San Diego, CA, USA). Cell viability was calculated using the following formula: Cell viability (%) = (ODtreatment − ODblank)/(ODcontrol − ODblank) × 100% [78].

The term MIC denotes the lowest concentration that inhibits growth of the organism. With `COc1cc(/C=C/C(=O)O)ccc1O` [FA, ferulic acid], the MIC was found to be 1024 µg/mL (≈ 5270 µM) in series [1] (COLR-Ab1); 1024 µg/mL (≈ 5270 µM) in series [1] (COLR-Ab2); 1024 µg/mL (≈ 5270 µM) in series [1] (COLR-Ab3); 512 µg/mL (≈ 2640 µM) in series [1] (COLR-Ab4); 1024 µg/mL (≈ 5270 µM) in series [1] (COLR-Ab5); 1024 µg/mL (≈ 5270 µM) in series [1] (all isolates except COLR-Ab4). The “Inhibition of biofilm formation” value in series [2] (dose range 2048–128 μg/mL, COLR-Ab1, 3, 4, 5) was 28.1–77%. The “Increase in absorbance values at 260 nm vs control” value (shortened to “Increase in absorbance values”) in series [3] (COLR-Ab4, MIC concentration) was determined as 1.66 fold; in series [3] (COLR-Ab4, MIC/2 concentration) it was 1.52 fold; in series [3] (COLR-Ab4, MIC/4 concentration), 1.14 fold. Also, the “Cytotoxicity (doses with cytotoxic effects)” value (“Cytotoxicity” for short) in series [4] is given as “did not induce cytotoxic effects; also recorded: did not exhibit any cytotoxic effect”; in series [5] it was “no cytotoxic effects; also recorded: did not exhibit any cytotoxic effect”.

For the compound `O=C(O)/C=C/c1ccc(O)cc1` [p-CA, p-coumaric acid], the MIC was determined as 256 µg/mL (≈ 1560 µM) in series [1] (Acinetobacter baumannii, COLR-Ab1, read-out: MIC); 256 µg/mL (≈ 1560 µM) in series [1] (Acinetobacter baumannii, COLR-Ab2, read-out: MIC); 256 µg/mL (≈ 1560 µM) in series [1] (Acinetobacter baumannii, COLR-Ab3, read-out: MIC); 256 µg/mL (≈ 1560 µM) in series [1] (Acinetobacter baumannii, COLR-Ab4, read-out: MIC); 128 µg/mL (≈ 780 µM) in series [1] (Acinetobacter baumannii, COLR-Ab5, read-out: MIC); 256 µg/mL (≈ 1560 µM) in series [1] (Acinetobacter baumannii, all isolates except COLR-Ab5, read-out: MIC). The compound further yielded an MIC in series [1] (COLR-Ab5) of 128 µg/mL (≈ 780 µM). Moreover, the “Increase in biofilm formation” value in series [2] (COLR-Ab3, doses of 16–8 μg/mL) came out at 20%. In addition, the “Reduction of biofilm formation” value in series [2] (COLR-Ab1, 3, 4, 5) was 37.3–77.5%. The “Increase in absorbance values” value is 1.9 fold in series [3] (COLR-Ab4, MIC concentration); 1.71 fold in series [3] (COLR-Ab4, MIC/2 concentration); 1.19 fold in series [3] (COLR-Ab4, MIC/4 concentration). The “Cytotoxicity” value was “cytotoxicity in HUVEC cells at concentrations of 200 μg/mL (p < 0.01), 100 μg/mL (p < 0.05), and 50 μg/mL (p < 0.05); also recorded: cytotoxic at 200 (p < 0.01), 100 (p < 0.05), and 50 (p < 0.05) μg/mL” in series [4]; “no cytotoxic effects; also recorded: did not exhibit cytotoxic effects” in series [5]. Besides, the IC50 value entry in series [5] (tested range 0.78–200 μg/mL) is on record as “indeterminate”.

As for `COc1ccc(C=CC(=O)O)cc1` [p-MCA, p-methoxycinnamic acid], the minimal inhibitory concentration (MIC) was 512 µg/mL (≈ 2870 µM) in series [1] (COLR-Ab1); 512 µg/mL (≈ 2870 µM) in series [1] (COLR-Ab2); 256 µg/mL and 128 µg/mL in series [1] (COLR-Ab3); 256 µg/mL (≈ 1440 µM) in series [1] (COLR-Ab4); 128 µg/mL (≈ 718 µM) in series [1] (COLR-Ab5). Also, the “Reduction of biofilm formation” value in series [2] (COLR-Ab1, 3, 4, 5) was 40.3–77.2%. Also, the “Increase in absorbance values” value in series [3] (COLR-Ab4, MIC concentration) is reported as 1.34 fold; in series [3] (COLR-Ab4, MIC/2 concentration), 1.15 fold; in series [3] (COLR-Ab4, MIC/4 concentration), “no statistically significant differences”. Also, the “Cytotoxicity” value in series [4] was “cytotoxicity in these cells at concentrations of 200, 100, and 50 μg/mL; also recorded: cytotoxic effects in HUVEC cells at doses of 200, 100, and 50 μg/mL”; in series [5] it was “only 200 μg/mL p-MCA induced cytotoxicity; also recorded: only at 200 μg/mL (p < 0.05)”.
